Experimental data taken from patent US8519149B2, “Tricyclic compounds as mPGES-1 inhibitors” (Glenmark Pharmaceuticals S.A., priority 2010, dated 2013).
pIC50: −log10 of the molar value.

Molecular target: T1, Recombinant human mPGES-1 (Homo sapiens, UniProt O14684)
T1 sequence (O14684 1-152): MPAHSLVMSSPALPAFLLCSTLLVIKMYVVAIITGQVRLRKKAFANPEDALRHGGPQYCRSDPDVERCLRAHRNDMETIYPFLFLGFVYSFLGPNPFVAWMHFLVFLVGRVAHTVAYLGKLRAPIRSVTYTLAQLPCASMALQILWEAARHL
Experiment: In-vitro mPGES-1 enzyme inhibition assay (PGE2 formation from PGH2, HTRF detection)
Type: biochemical
Settings: for inhibition at 1 µM: 1 μM test compound, read-out: Percentage inhibition at 1 μM; for inhibition at 1 µM / inhibition at 10 µM: recombinant human mPGES-1 microsomal fraction; for inhibition at 10 µM: 10 μM test compound, read-out: Percentage inhibition at 10 μM; for pIC50: class symbols, selected examples
Method in brief: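 Crude microsomal fractions containing recombinant human mPGES-1 (40-60 μg/mL protein) convert PGH2 to PGE2 in the presence of reduced glutathione, with 0.5% final DMSO. Reaction stopped with stannous chloride, and PGE2 measured by anti-PGE2 antibody (HTRF) detection. IC50 by nonlinear regression of % inhibition versus uninhibited enzyme control.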

Compound	inhibition at 1 µM [%]	inhibition at 10 µM [%]	pIC50
CC1(C)Cc2c(c(C(=O)NCC(F)(F)F)cc3nc(Nc4c(Cl)cccc4Cl)[nH]c23)O1 [Example-62, 2-[(2,6-Dichlorophenyl)amino]-7,7-dimethyl-N-(2,2,2-trifluoroethyl)-7,8-dihydro-1H-furo[3,2-e]benzimidazole-5-carboxamide]	96.8	94.3	
CC1(C)Cc2c(c(C(=O)NCCF)cc3nc(Nc4c(Cl)cccc4Cl)[nH]c23)O1 [Example-63, 2-[(2,6-Dichlorophenyl)amino]-N-(2-fluoroethyl)-7,7-dimethyl-7,8-dihydro-1H-furo[3,2-e]benzimidazole-5-carboxamide]	88	96.6	7.00 to 7.30
Cc1cc2c(o1)c(C(=O)Nc1ccc(Br)cc1)cc1nc(Nc3c(Cl)cccc3Cl)[nH]c12 [Example-66, N-(4-Bromophenyl)-2-[(2,6-dichlorophenyl)amino]-7-methyl-1H-furo[3,2-e]benzimidazole-5-carboxamide]	96.4	95.2	> 7.30
Cc1cc2c(o1)c(C(=O)Nc1ccccc1F)cc1nc(Nc3c(Cl)cccc3Cl)[nH]c12 [Example-67, 2-[(2,6-Dichlorophenyl)amino]-N-(2-fluorophenyl)-7-methyl-1H-furo[3,2-e]benzimidazole-5-carboxamide]	92.8	96.2	
Cc1cc2c(o1)c(C(=O)Nc1cccc(C(F)(F)F)c1)cc1nc(Nc3c(Cl)cccc3Cl)[nH]c12 [Example-68, 2-[(2,6-Dichlorophenyl)amino]-7-methyl-N-[3-(trifluoromethyl)phenyl]-1H-furo[3,2-e]benzimidazole-5-carboxamide]	97.6	98.5	
COCCCNC(=O)c1cc2nc(Nc3c(Cl)cccc3Cl)[nH]c2c2c1OC(C)(C)C2 [Example-69, 2-[(2,6-Dichlorophenyl)amino]-N-(3-methoxypropyl)-7,7-dimethyl-7,8-dihydro-1H-furo[3,2-e]benzimidazole-5-carboxamide]	86.2	98	> 7.30
CC1(C)Cc2c(c(C(=O)NCCN3CCOCC3)cc3nc(Nc4c(Cl)cccc4Cl)[nH]c23)O1 [Example-70, 2-[(2,6-Dichlorophenyl)amino]-7,7-dimethyl-N-[2-(morpholin-4-yl)ethyl]-7,8-dihydro-1H-furo[3,2-e]benzimidazole-5-carboxamide]	69.1	88.2	
Cc1cc2c(o1)c(C(=O)Nc1ccc(Br)cn1)cc1nc(Nc3c(Cl)cccc3Cl)[nH]c12 [Example-71, N-(5-Bromopyridin-2-yl)-2-[(2,6-dichlorophenyl)amino]-7-methyl-1H-furo[3,2-e]benzimidazole-5-carboxamide]	93.9	98.4	> 7.30
CC1(C)Cc2c(c(C(=O)Nc3ccccc3Br)cc3nc(Nc4c(Cl)cccc4Cl)[nH]c23)O1 [Example-72, N-(2-Bromophenyl)-2-[(2,6-dichlorophenyl)amino]-7,7-dimethyl-7,8-dihydro-1H-furo[3,2-e]benzimidazole-5-carboxamide]	93.2	93.7	> 7.30
CC1(C)Cc2c(c(C(=O)NNc3ccc(Br)cc3)cc3nc(Nc4c(Cl)cccc4Cl)[nH]c23)O1 [Example-74]	93.4	94.7	7.00 to 7.30
CC1(C)Cc2c(c(C(=O)Nc3ccccc3C(F)(F)F)cc3nc(Nc4c(Cl)cccc4Cl)[nH]c23)O1 [Example-75, 2-[(2,6-Dichlorophenyl)amino]-7,7-dimethyl-N-[2-(trifluoromethyl)phenyl]-7,8-dihydro-1H-furo[3,2-e]benzimidazole-5-carboxamide]	94.8	95	> 7.30
CC1(C)Cc2c(c(C(=O)Nc3c(F)cccc3F)cc3nc(Nc4c(Cl)cccc4Cl)[nH]c23)O1 [Example-76, 2-[(2,6-Dichlorophenyl)amino]-N-(2,6-difluorophenyl)-7,7-dimethyl-7,8-dihydro-1H-furo[3,2-e]benzimidazole-5-carboxamide]	95.8	99.6	> 7.30
CC1(C)Cc2c(c(C(=O)Nc3ccccc3C(F)(F)F)cc3nc(Nc4c(F)cccc4Cl)[nH]c23)O1 [Example-77, 2-[(2-Chloro-6-fluorophenyl)amino]-7,7-dimethyl-N-[2-(trifluoromethyl)phenyl]-7,8-dihydro-1H-furo[3,2-e]benzimidazole-5-carboxamide]	93.1	89.9	> 7.30
CC1(C)Cc2c(c(C(=O)Nc3ccc(Br)cc3)cc3nc(Nc4ccccc4Cl)[nH]c23)O1 [Example-78, N-(4-Bromophenyl)-2-[(2-chlorophenyl)amino]-7,7-dimethyl-7,8-dihydro-1H-furo[3,2-e]benzimidazole-5-carboxamide]	88.5	96.4	> 7.30
CC1(C)Cc2c(c(C(=O)Nc3ccccc3C(F)(F)F)cc3nc(Nc4ccccc4Cl)[nH]c23)O1 [Example-79, 2-[(2-Chlorophenyl)amino]-7,7-dimethyl-N-[2-(trifluoromethyl)phenyl]-7,8-dihydro-1H-furo[3,2-e]benzimidazole-5-carboxamide]	97.4	91.9	7.00 to 7.30
CC1(C)Cc2c(c(C(=O)NCc3ccccc3C(F)(F)F)cc3nc(Nc4c(F)cccc4Cl)[nH]c23)O1 [Example-80, 2-[(2-Chloro-6-fluorophenyl)amino]-7,7-dimethyl-N-[2-(trifluoromethyl)benzyl]-7,8-dihydro-1H-furo[3,2-e]benzimidazole-5-carboxamide]	93.2	92	> 7.30
CC1(C)Cc2c(c(C(=O)NCc3ccccc3C(F)(F)F)cc3nc(Nc4c(Cl)cccc4Cl)[nH]c23)O1 [Example-82, 2-[(2,6-Dichlorophenyl)amino]-7,7-dimethyl-N-[2-(trifluoromethyl)benzyl]-7,8-dihydro-1H-furo[3,2-e]benzimidazole-5-carboxamide]	94.1	97.6	> 7.30
CC1(C)Cc2c(c(C(=O)NCCc3ccc(Cl)cc3)cc3nc(Nc4c(Cl)cccc4Cl)[nH]c23)O1 [Example-83, N-[2-(4-Chlorophenyl)ethyl]-2-[(2,6-dichlorophenyl)amino]-7,7-dimethyl-7,8-dihydro-1H-furo[3,2-e]benzimidazole-5-carboxamide]	87.7	89.3	> 7.30
CC1(C)Cc2c(c(C(=O)NCc3ccccc3Br)cc3nc(Nc4c(Cl)cccc4Cl)[nH]c23)O1 [Example-84, N-(2-Bromobenzyl)-2-[(2,6-dichlorophenyl)amino]-7,7-dimethyl-7,8-dihydro-1H-furo[3,2-e]benzimidazole-5-carboxamide]	93.7	94.4	> 7.30
Cc1cc2c(o1)c(C(=O)NCc1ccccc1C(F)(F)F)cc1nc(Nc3c(Cl)cccc3Cl)[nH]c12 [Example-85, 2-[(2,6-Dichlorophenyl)amino]-7-methyl-N-[2-(trifluoromethyl)benzyl]-1H-furo[3,2-e]benzimidazole-5-carboxamide]	93.3	95.4	7.00 to 7.30
CC1(C)Cc2c(c(C(=O)Nc3ccc(C(F)(F)F)cc3)cc3nc(Nc4ccc(F)cc4Cl)[nH]c23)O1 [Example-86, 2-[(2-Chloro-4-fluorophenyl)amino]-7,7-dimethyl-N-[4-(trifluoromethyl)phenyl]-7,8-dihydro-1H-furo[3,2-e]benzimidazole-5-carboxamide]	95	98.7	> 7.30
Cc1ccc(Nc2nc3cc(C(=O)Nc4ccc(C(F)(F)F)cc4)c4c(c3[nH]2)CC(C)(C)O4)c(Cl)c1 [Example-87, 2-[(2-Chloro-4-methylphenyl)amino]-7,7-dimethyl-N-[4-(trifluoromethyl)phenyl]-7,8-dihydro-1H-furo[3,2-e]benzimidazole-5-carboxamide]	87.4	92.2	> 7.30
CC1(C)Cc2c(c(C(=O)NCc3ccccc3C(F)(F)F)cc3nc(Nc4ccccc4Cl)[nH]c23)O1 [Example-88, 2-[(2-Chlorophenyl)amino]-7,7-dimethyl-N-[2-(trifluoromethyl)benzyl]-7,8-dihydro-1H-furo[3,2-e]benzimidazole-5-carboxamide]	85.5	99.4	< 7.00
CC1(C)Cc2c(c(C(=O)Nc3ccc(C(F)(F)F)cc3)cc3nc(Nc4ccccc4Cl)[nH]c23)O1 [Example-89, 2-[(2-Chlorophenyl)amino]-7,7-dimethyl-N-[4-(trifluoromethyl)phenyl]-7,8-dihydro-1H-furo[3,2-e]benzimidazole-5-carboxamide]	97.1	97.1	> 7.30
CC(C)c1ccc(NC(=O)c2cc3nc(Nc4c(Cl)cccc4Cl)[nH]c3c3c2OC(C)(C)C3)cc1 [Example-90, 2-[(2,6-Dichlorophenyl)amino]-7,7-dimethyl-N-[4-(propan-2-yl)phenyl]-7,8-dihydro-1H-furo[3,2-e]benzimidazole-5-carboxamide]	97.7	98.4	> 7.30
CC1(C)Cc2c(c(C(=O)Nc3ccc(C(F)(F)F)cc3)cc3nc(Nc4ccc(Cl)cc4Cl)[nH]c23)O1 [Example-91, 2-[(2,4-Dichlorophenyl)amino]-7,7-dimethyl-N-[4-(trifluoromethyl)phenyl]-7,8-dihydro-1H-furo[3,2-e]benzimidazole-5-carboxamide]	43.9	60.2	
